Results published in US20120238488A1, “COMPOUNDS AND METHODS FOR TREATING NEOPLASIA” (priority 2009, published 2012).

Assays:
UAC032 (Melanoma) = experiment: SRB assay, UAC032; type: cell-based, human; details: 48 h
Method: SRB assays were performed according to standard National Cancer Institute Guidelines. Briefly, human tumor cells from different cancer panels were seeded into 96 well plates in 100 μL (plating densities ranging from 5-40,000 cells/well depending on the doubling time of individual cell lines) in serum-containing media for twenty-four hours prior to the addition of the compounds to be assayed. After 24 hours, one plate of each cell line was fixed in situ with trichloroacetic acid (TCA). The fixed slides were used to determine the cell population for each cell line at the time of drug addition (Tz). Each compound to be tested was solubilized in DMSO and the desired concentration was then added to the medium and diluted serially 1:10 to provide a total of five or ten drug concentrations plus control (in a final volume of 200 μL). The starting dose before any dilution was 100 uM for all compounds.
Following drug addition, each culture was incubated for forty-eight hours. The assay was terminated with the addition of cold TCA. The supernatant was discarded, and the plates were washed with tap water and air dried. Sulforhodamine B (SRB) solution was then added to each well. After staining, the bound stain was solubilized and the absorbance was read on an automated plate reader at a wavelength of 515 nm.
Using the absorbance measurements [time zero, (Tz), control growth, (C), and test growth in the presence of drug at the ten concentration levels (Ti)], the percentage growth was calculated at each of the drug concentrations levels. Percentage growth inhibition was calculated as:
[(Ti−Tz)/(C−Tz)]×100 for concentrations for which Ti>/=Tz […]
Three dose response parameters were calculated for each experimental agent. […] The drug concentration resulting in total growth inhibition (TGI) was calculated from Ti=Tz. […]
Values were calculated for each of these three parameters when the level of activity was reached; however, if the effect was not reached or was exceeded, the value for that parameter was expressed as greater or less than the maximum or minimum concentration tested. […]

[1] = test system: DU145 prostate cancer cells; experiment: MTT assay, combination with paclitaxel; details: DU145, FIG. 1E
Method: Cell proliferation/viability was assessed by the MTT [3-(4,5-dimethylthiazol-2-yl)-2,5-diphenyltetrazolium bromide] assay, which is commercially available (Sigma, St. Louis, Mo.). Cells were cultured in 96-well plates for twenty-four hours (7-10.000 cells/well) and incubated with various concentrations of the compounds of the invention in serum-containing medium (or left untreated) for seventy-two hours. At the end of incubation, the medium was aspirated and MTT dissolved in RPMI 1640 w/o phenol red was added to each well to a final concentration of 0.25 mg/ml. After four hours incubation in the dark (37° C., 5% CO2) the supernatant was discarded. The converted dye (blue formazan crystals) was solubilized by adding 200 μl dimethylsulfoxide to each well. Absorbance was measured at 550 nm with reference at 655 nm using a spectrophotometer with the respective filters. All assays were performed in triplicate.

[2] = test system: membrane androgen receptor; experiment: Membrane androgen receptor competition assay, DU145 cells; type: binding; details: 40 μM compound 30 minutes before 40 μM testosterone-HSA-FITC, FIGS. 3B, 3C
Text: To assess whether compounds of the invention were capable of binding directly to the membrane androgen receptor, a fluorescent-based assay was used to measure the ability of a given compound to preclude binding of a fluorescent mAR ligand (testosterone-HSA-FITC conjugates) to its receptor in LNCaP and DU145 cells (see Kampa, M et al, 2002, Faseb J 16:1429-1431, and PCT/U52007/007913).
The detection of membrane androgen receptors using fluorescent testosterone-serum albumin conjugates was performed as described by Kampa, M et al, 2002, Faseb J 16:1429-1431, with minor modifications. Briefly, LNCaP or DU145 prostate cancer cells were cultured on 0.1% gelatin-coated glass coverslips in RPMI 1640 medium supplemented with 2 mM L-Glutamine, 10% Fetal Bovine Serum and 1% Penicillin/Streptomycin for at least 48 hours until reaching 70% confluency. After a 24 hour serum starvation period, cells were incubated with 40 μM testosterone-HSA-FITC for 1 hour at room temperature. The cells were then washed three times with phosphate buffered saline (PBS) and fixed with 3.7% formaldehyde in PBS for 5 minutes at room temperature. Human serum albumin-FITC was used as a control for background staining. […] Coverslips were mounted on slides by using the Slow Fade/Antifade Reagent (Molecular Probes) and studied under a LEICA DMLB microscope, equipped with the appropriate fluorescence filters and a Leica DC 300F camera. Specimens were analyzed using the Leica FW4000 computer program.
To determine the capacity of a given compound to preclude binding of fluorescent testosterone-HSA conjugates (TAC) to the membrane androgen receptor, starved LNCaP or DU145 cells on coverslips prepared as described above were pre-treated with 40 μM of the indicated compound for 30 minutes prior to the addition of testosterone-HSA-FITC. […] Specimens were prepared and analyzed as described above. Compounds binding to the membrane androgen receptor preclude binding of fluorescent testosterone-HSA conjugates to their target and abolish membrane-specific fluorescence.

Row | Structure (SMILES) | CC50 (UAC032 (Melanoma); Homo sapiens, read-out: LC50) [µM] | GI50 (UAC032 (Melanoma); Homo sapiens, UAC032, SRB) [µM] | TGI (UAC032 (Melanoma); UAC032, SRB) [µM] | enhancement of the cytotoxic action of paclitaxel ([1]; 1 or 2 uM compound 12 added to paclitaxel 20 nM) | membrane fluorescence of TAC-FITC after pre-treatment (binding to mAR precluded) [2] | cytotoxic activity alone ([1]; paclitaxel 20 nM)
1 | C[C@]12CCC(=NOCCN)C=C1CCC1C2CC[C@]2(C)C(=O)CCC12 (stereo partly drawn) [Compound 12, (10R,13S)-3-(2-aminoethoxyimino)-10,13-dimethyl-2,3,7,8,9,10,11,12,13,14,15,16-dodecahydro-1H-cyclopenta[a]phenanthren-17(6H)-one] | 49.5 | 4.57 | 7.64 | clearly enhances the cytotoxic action | devoid of membrane fluorescence | 
2 | C[C@]12CCC(=NOC3CCNC3)CC1CCC1C2CC[C@]2(C)C(=O)CCC12 (stereo partly drawn) [Compound 56, (10S,13S)-10,13-dimethyl-3-(pyrrolidin-3-yloxyimino)tetradecahydro-1H-cyclopenta[a]phenanthren-17(2H)-one] |  |  |  |  | devoid of membrane fluorescence | 
3 | CC(=O)O[C@H]1C(=O)[C@@]2(C)[C@H]([C@H](OC(=O)c3ccccc3)[C@]3(O)C[C@H](OC(=O)[C@H](O)[C@@H](NC(=O)c4ccccc4)c4ccccc4)C(C)=C1C3(C)C)[C@]1(OC(C)=O)CO[C@@H]1C[C@@H]2O [Paclitaxel, reference compound] |  |  |  |  |  | limited cytotoxic activity
